Data published in patent US10947202B2, “Sodium ion channel inhibitors and pharmaceutically acceptable salts and polymorphs thereof and uses thereof” (SHANGHAI HAIYAN PHARMACEUTICAL TECHNOLOGY CO., LTD., priority 2017, dated 2021).

Assays:
[1] = target: hNav1.7 (Homo sapiens, UniProt Q15858); experiment: Manual patch clamp experiment of hNav1.7 channel (CHO-hNav1.7 stable cell line); assay type: cell-based; details: for inhibition at 0.1 µM: read-out: Inhibition of Nav1.7, 100 nM(%); for inhibition at 1 µM: read-out: Inhibition of Nav1.7, 1000 nM(%)
Sequence of hNav1.7 (Q15858 whole entry): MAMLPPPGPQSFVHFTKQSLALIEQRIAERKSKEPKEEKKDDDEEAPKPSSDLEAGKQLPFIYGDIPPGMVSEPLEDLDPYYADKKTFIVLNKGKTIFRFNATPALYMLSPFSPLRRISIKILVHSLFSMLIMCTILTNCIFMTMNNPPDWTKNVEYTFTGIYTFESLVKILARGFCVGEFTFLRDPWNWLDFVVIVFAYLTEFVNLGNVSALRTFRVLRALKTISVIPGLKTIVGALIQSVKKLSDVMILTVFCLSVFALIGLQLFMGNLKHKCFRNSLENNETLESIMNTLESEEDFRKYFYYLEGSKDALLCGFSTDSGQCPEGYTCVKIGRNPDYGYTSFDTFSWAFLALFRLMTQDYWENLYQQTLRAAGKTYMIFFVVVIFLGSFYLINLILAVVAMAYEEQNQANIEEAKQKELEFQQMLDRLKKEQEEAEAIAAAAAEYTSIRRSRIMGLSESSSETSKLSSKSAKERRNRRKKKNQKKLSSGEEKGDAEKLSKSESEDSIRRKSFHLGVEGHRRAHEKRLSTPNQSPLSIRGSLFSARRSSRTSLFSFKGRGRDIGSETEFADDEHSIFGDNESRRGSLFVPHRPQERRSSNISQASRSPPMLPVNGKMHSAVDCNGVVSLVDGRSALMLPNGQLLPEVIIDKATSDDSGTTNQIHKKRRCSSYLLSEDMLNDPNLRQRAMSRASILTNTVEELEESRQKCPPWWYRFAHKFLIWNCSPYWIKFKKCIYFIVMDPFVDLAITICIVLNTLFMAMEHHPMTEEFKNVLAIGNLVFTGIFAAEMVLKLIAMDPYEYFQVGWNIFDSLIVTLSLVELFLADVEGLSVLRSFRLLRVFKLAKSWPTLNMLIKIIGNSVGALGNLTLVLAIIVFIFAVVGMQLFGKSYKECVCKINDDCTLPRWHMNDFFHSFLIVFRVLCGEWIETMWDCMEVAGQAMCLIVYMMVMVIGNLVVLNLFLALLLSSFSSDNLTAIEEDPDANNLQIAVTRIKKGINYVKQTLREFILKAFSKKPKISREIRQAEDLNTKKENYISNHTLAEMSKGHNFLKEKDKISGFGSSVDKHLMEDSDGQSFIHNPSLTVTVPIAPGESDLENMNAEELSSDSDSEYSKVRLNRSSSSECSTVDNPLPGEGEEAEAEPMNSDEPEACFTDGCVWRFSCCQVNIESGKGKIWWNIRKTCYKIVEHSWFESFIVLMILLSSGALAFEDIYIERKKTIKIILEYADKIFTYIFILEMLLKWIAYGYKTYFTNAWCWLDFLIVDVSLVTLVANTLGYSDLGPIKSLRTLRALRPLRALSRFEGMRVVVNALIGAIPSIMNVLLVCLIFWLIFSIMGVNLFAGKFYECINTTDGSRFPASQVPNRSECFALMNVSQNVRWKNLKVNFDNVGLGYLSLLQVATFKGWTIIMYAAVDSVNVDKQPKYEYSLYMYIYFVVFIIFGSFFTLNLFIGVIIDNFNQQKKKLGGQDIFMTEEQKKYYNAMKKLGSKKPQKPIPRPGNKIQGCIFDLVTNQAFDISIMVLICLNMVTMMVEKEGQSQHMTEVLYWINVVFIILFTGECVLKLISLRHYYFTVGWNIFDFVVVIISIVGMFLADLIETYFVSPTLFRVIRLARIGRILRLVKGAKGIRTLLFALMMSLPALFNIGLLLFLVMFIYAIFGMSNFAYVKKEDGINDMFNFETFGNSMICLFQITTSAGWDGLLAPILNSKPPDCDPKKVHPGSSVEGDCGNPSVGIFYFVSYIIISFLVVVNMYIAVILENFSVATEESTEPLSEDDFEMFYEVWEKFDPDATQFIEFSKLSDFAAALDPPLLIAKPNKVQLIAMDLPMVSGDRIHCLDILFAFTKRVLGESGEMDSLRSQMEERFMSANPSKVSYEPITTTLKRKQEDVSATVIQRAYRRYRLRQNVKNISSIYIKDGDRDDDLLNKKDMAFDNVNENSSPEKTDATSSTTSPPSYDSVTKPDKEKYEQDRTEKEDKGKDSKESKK
Text: Patch voltage clamp electrophysiology allows for the direct measurement and quantification of current block of voltage-gated sodium channels (NaV's), and allows the determination of the time and voltage-dependence of block which has been interpreted as differential binding to the resting, open and inactivated states of the sodium channel to reflect the compound's inhibitory or activating effects (Hille, B., Journal of General Physiology (1977), 69: 497-515).
Representative compounds of the present disclosure were performed using a manual patch clamp experiment and the purpose of this study was to test the effect of compounds on this ion channel current on a stable cell line transfected with a specific ion channel using a manual patch clamp method, the used stable cell lines CHO-hNav1.7 and HEK-hNav1.5 were from Genionics and WuXi Apptec (Shanghai) respectively.
Manual patch clamp experimental program is as follows:
(1) Preparation of solutions and compounds: The whole cell patch clamp technique was used to record hNav1.7 and hNav1.5 currents. In the experiment, the composition of extracellular fluid (mM): HEPES: 5, NaCl: 40, KCl: CaCl2:1, MgCl2:1, CdCl2:0.1, TEA-Cl: 20. The pH was adjusted to 7.3 with NaOH and the osmotic pressure was adjusted to 310-320 mOsm with sucrose, filtered and stored at 4° C. The composition of the intracellular fluid (mM): HEPES: 10, NaCl: 10, CsOH: 5, CsF: 140, EGTA: 1. The pH was adjusted to 7.3 with CsOH and the osmotic pressure was adjusted to 280-290 mOsm with sucrose, filtered and stored at −20° C.
The positive control and the test compound were firstly dissolved in 100% DMSO (Sigma-Aldrich, D2650), configured as stock solution at a concentration (100 nM, 1000 nM).) The above stock solution was serially diluted with DMSO prior to the experiment, the solution was further diluted with extracellular solution to obtain the desired concentration of the test solution.
(2) Manual Patch Clamp Experiment: The cell suspension was added to a 35 mm petri dish and placed on an inverted microscope stage, the cells were perfused with an extracellular fluid and the flow rate was 1-2 mL/min after cell adherence. The glass microelectrode was pulled in two steps by a microelectrode puller with an inlet water resistance of 2-5 MΩ. A/D-D/A digital-analog conversion was performed by Digidata 1440 (Molecular Devices) and pCLAMP software (version 10.2, Molecular Devices) for stimulation and signal acquisition; the signal was amplified by patch clamp amplifier (Multiclamp 700B, Molecular Devices), filtering is 4 KHz.
Two different voltage stimulation procedures were used in the hNav1.7 and hNav1.5 manual patch clamp experiments.
One is the inactivation stimulation program, the clamp potential is set at V1/2 of the corresponding channel, ie about 50% of the channels are inactivated, then the voltage is applied to −120 mV for 50 ms, then depolarized to −10 mV for 20 ms leading to sodium current, and finally back to the clamp potential. This stimulation program can also be called channel state-dependent voltage stimulation program.
The other is the non-inactivation stimulation program, the clamp potential is maintained at −120 mV, voltage stimulation is given to −10 mV for 20 ms leading to sodium current, and finally back to the clamp potential. That is all channels have not experienced inactivation status, but activate directly from the resting state under the conditions of the stimulation program.
The time intervals of these two voltage stimulation program were 10 s. The inhibitory effect of the compound was calculated by the change of the current before and after dosing, the IC50 value was fitted by the Hill equation. […] The results are shown in Table 33 and Table 34, respectively.

[2] = Metabolism stability test in liver microsomes; assay type: in vitro ADME; details: human liver microsomes
Description: Buffer A: 1 L solution of 100 mM potassium dihydrogen phosphate containing 1 mM EDTA (Sigma, V900157-100G) was prepared.
Buffer B: 1 L solution of 100 mM dipotassium hydrogen phosphate containing 1 mM EDTA was prepared.
Buffer C: 700 mL of buffer B was taken out and titrated with buffer A to pH 7.4.
2.1 10 μl of 10 mM compound to be tested and 10 μl of 10 mM ketanserin were taken out and 190 μl of pure acetonitrile was added to each of them to prepare 500 μM compound to be tested and ketanserin, respectively.
2.2 20 μl (20 mg/mL) of liver microsomes (Corning Lot. NO. 4133007) stock solution was added to 513.4 μl of buffer C on wet ice. 0.75 mg/mL liver microsomal solution was obtained.
2.3 1.5 μl of each of the above-mentioned compound to be tested and ketanserin solution was added to 498.5 μl of liver microsomal solution (0.7 5 mg/mL) respectively on wet ice. 1.5 μM mixed solution of compound to be tested and 1.5 μM mixed solution of ketanserin were obtained.
2.4 At the time points 0, 5, 15, 30, 45, and 60 min, 30 μl of the mixed solution of compound to be tested and 30 μl of the mixed solution of ketanserin were dispensed into the reaction plate on wet ice, respectively.
2.5 5 mg reduced coenzyme II (Roche, 10621706001) was weighed and dissolved in 1 mL of buffer C. 6 mM reduced coenzyme II solution was obtained. The reduced coenzyme II solution was dispensed into the reaction plate.
2.6 Imipramine was dissolved to give a 10 mM solution. 10 μl imipramine solution was added to 100 mL of blank acetonitrile to generate the internal reference.
2.7 At 0 min, 135 μL of iced acetonitrile (Merck (Lot. 1778229518)) containing the internal reference was added to each well and then 15 μL of buffer C was added.
2.8 The reaction plate was placed into a 37° C. water bath incubator for 5 min. In the reaction plate, 15 μL of reduced coenzyme II solution was added to each well to initiate the reaction, and the time keeping was started. At the time points of 5, 15, 30, 45, and 60 min, 135 μL of iced acetonitrile containing the internal reference was added to each well to terminate the reaction.
2.9 The reaction plate was sealed with an aluminum film, placed on a vibration mixer and shaken at 500 rpm for 5 min. The plate was then centrifuged in a centrifuge at 3750 rp for 15 min.
2.10 The sample was diluted with pure water in accordance with the ratio of 1:1 and detected by LC/MS. […]
Wherein, the K value and the proportional factor were calculated by those skilled in the art according to the methods described in the prior art and contained in the instructions of the liver microsome product.

[3] = Hygroscopicity experiment (DVS); assay type: physicochemical
Text: The Dynamic Vapor Sorption (DVS) curve was acquired on the DVS Intrinsic of Surface Measurement Systems.
The DVS results for crystal forms A, D, E-3 and F are shown in FIG. 1E, FIG. 4F, FIG. 7E and FIG. 8E, respectively.

[4] = Crystal form stability on shaking in solvent or heating (XRPD); assay type: physicochemical; details: for crystal form after shaking of mixed forms: crystal forms III and IV mixed in ACE and MeOH, shaken at 50° C. for 1 day; for crystal form after heating: heated to 150° C.
Description: The reaction solution in the step 4 of Example 1 was poured into water, extracted with ethyl acetate, dried and concentrated, ethanol was added to dissolve and the solution was evaporated, 1N hydrochloric acid and ethyl acetate were added and stirred for 1-2 h, filtered, a solid product which was the crystal form III of free base was obtained, the X-ray powder diffraction pattern is shown in FIG. 11A (the 2θ angle has been marked), the DSC/TGA/DVS patterns are shown in FIGS. 11B, 11C and 11D. According to the DSC pattern, there is an inflection point around 100° C., and the sample has a melting absorption peak at 181.9° C. […] The sample was shaken in ACE and MeOH at 50° C. for 1 day, and the crystal form was unchanged.
The reaction solution in the step 4 of Example 1 was poured into water, extracted with ethyl acetate, dried and concentrated to retain a small amount of ethyl acetate, 1N hydrochloric acid was added and stirred for 1 h, filtered, the filter cake was washed with ethanol and then filtered to obtain a solid product which was the crystal form IV of free base was obtained. The X-ray powder diffraction pattern is shown in FIG. 12A (the […] has been marked), the DSC/TGA/DVS patterns are shown in FIGS. 12B, 12C and 12D. […] The sample was shaken in ACE at 50° C. for 1 day, and the crystal form was unchanged. […]

Row | Structure (SMILES) | inhibition at 1 µM [1] [%] | hygroscopicity (DVS curve) [3] | crystal form after heating [4] | also measured
1 | O=C(NS(=O)(=O)C1CC1)c1cc(C2CC2)c(CN2CCN(Cc3cc(Cl)cc(Cl)c3)CC2)cc1F [C1] | 64.8 |  |  | inhibition at 0.1 µM [1]: 49.2%
2 | CS(=O)(=O)NC(=O)c1cc(C2CC2)c(CN2CCN(Cc3ccc(Cl)c(Cl)c3)CC2)cc1F [C2] | 64 |  |  | inhibition at 0.1 µM [1]: 52%
3 | O=C(NS(=O)(=O)C1CC1)c1cc(Cl)c(CN2CCN(Cc3ccc(Cl)cc3)CC2)cc1F [C6] | 67.2 |  |  | 
4 | CS(=O)(=O)NC(=O)c1cc(Cl)c(CN2CCN(c3ccc(C4CC4)c(Cl)c3)CC2)cc1F [C12, reference compound] |  |  |  | Clearance ratio [2]: 78.28 mL/min/kg
5 | Cc1cc(N2CCN(Cc3cc(F)c(C(=O)NS(C)(=O)=O)cc3Cl)CC2)ccc1Cl [C13, reference compound] |  |  |  | Clearance ratio [2]: 138.91 mL/min/kg
6 | Cc1cc(N2CCN(Cc3cc(F)c(C(=O)NS(=O)(=O)C4CC4)cc3Cl)CC2)ccc1Cl [crystal form III, 5-chloro-4-((4-(4-chloro-3-methylphenyl)piperazin-1-yl)methyl)-N-(cyclopropylsulfonyl)-2-fluorobenzamide] |  | slightly hygroscopic |  | stability of the crystal form (assessment in words) [4]: metastable crystal form; crystal form after shaking of mixed forms [4]: converted into crystal form I; crystal form after shaking ([4]; shaken in ACE and MeOH at 50° C. for 1 day): unchanged
7 | Cc1cc(N2CCN(Cc3cc(F)c(C(=O)NS(=O)(=O)C4CC4)cc3Cl)CC2)ccc1Cl [crystal form IV, 5-chloro-4-((4-(4-chloro-3-methylphenyl)piperazin-1-yl)methyl)-N-(cyclopropylsulfonyl)-2-fluorobenzamide] |  | slightly hygroscopic |  | stability of the crystal form (assessment in words) [4]: metastable crystal form; crystal form after shaking of mixed forms [4]: converted into crystal form I; crystal form after shaking ([4]; shaken in ACE at 50° C. for 1 day): unchanged
8 | Cc1cc(N2CCN(Cc3cc(F)c(C(=O)NS(=O)(=O)C4CC4)cc3Cl)CC2)ccc1Cl [crystal form V, 5-chloro-4-((4-(4-chloro-3-methylphenyl)piperazin-1-yl)methyl)-N-(cyclopropylsulfonyl)-2-fluorobenzamide] |  | slightly hygroscopic | converted into crystal form I | 
9 | Cc1cc(N2CCN(Cc3cc(F)c(C(=O)NS(=O)(=O)C4CC4)cc3Cl)CC2)ccc1Cl [crystal form VI, 5-chloro-4-((4-(4-chloro-3-methylphenyl)piperazin-1-yl)methyl)-N-(cyclopropylsulfonyl)-2-fluorobenzamide] |  | slightly hygroscopic | converted into crystal form I | 
10 | Cc1cc(N2CCN(Cc3cc(F)c(C(=O)NS(=O)(=O)C4CC4)cc3Cl)CC2)ccc1Cl [crystal form VII, 5-chloro-4-((4-(4-chloro-3-methylphenyl)piperazin-1-yl)methyl)-N-(cyclopropylsulfonyl)-2-fluorobenzamide] |  | slightly hygroscopic | converted into crystal form I | 
